In patent publication US20230339978A1, “COMPOUNDS FOR PREVENTION OR TREATMENT OF NEURODEGENERATIVE DISORDERS” (1ST Biotherapeutics, Inc., priority 2020, published 2023):
Read-outs that look alike come from different tables or passages of the source.

Legend:
[1] = test system: IL-6 secretion in BV-2 cell; experiment: IL-6 Secretion in BV-2 Cell (L18-MDP stimulated, ELISA); type: cell-based; settings: BV-2 mouse microglia cells, 10 µg/ml L18-MDP, 24 hr
Description: IL-6 Secretion in BV-2 Cell
BV-2 mouse microglia cells were kindly provided from Dr. Bae in Korea Institute of Science and Technology (KIST). BV-2 cells were thawed and suspended in Dulbecco’s modified eagle medium (DMEM) supplemented with 10% fetal bovine serum (FBS) and 1% Penicillin/Streptomycin. Cells were seeded into 96 well plates at 2X10^4 cells/well and allowed to attach for 24 hr. On the day of the experiment, various concentration of compounds were treated, and cells were stimulated with 10 µg/ml L18-MDP. After 24 hr incubation, supernatant was collected for cytokine assay.
Absorbance at 450 nm was measured using SpectraMax I3X microplate reader (Molecular Device). Values of media-only wells were subtracted and % inhibition for each compound concentration relative to the DMSO/L18-MDP-treated controls (100%) was calculated.

[2] = target: T1, His-tagged recombinant human ABL1 (Homo sapiens (Human), UniProt P00519); experiment: biochemical
T1 sequence (P00519 whole entry): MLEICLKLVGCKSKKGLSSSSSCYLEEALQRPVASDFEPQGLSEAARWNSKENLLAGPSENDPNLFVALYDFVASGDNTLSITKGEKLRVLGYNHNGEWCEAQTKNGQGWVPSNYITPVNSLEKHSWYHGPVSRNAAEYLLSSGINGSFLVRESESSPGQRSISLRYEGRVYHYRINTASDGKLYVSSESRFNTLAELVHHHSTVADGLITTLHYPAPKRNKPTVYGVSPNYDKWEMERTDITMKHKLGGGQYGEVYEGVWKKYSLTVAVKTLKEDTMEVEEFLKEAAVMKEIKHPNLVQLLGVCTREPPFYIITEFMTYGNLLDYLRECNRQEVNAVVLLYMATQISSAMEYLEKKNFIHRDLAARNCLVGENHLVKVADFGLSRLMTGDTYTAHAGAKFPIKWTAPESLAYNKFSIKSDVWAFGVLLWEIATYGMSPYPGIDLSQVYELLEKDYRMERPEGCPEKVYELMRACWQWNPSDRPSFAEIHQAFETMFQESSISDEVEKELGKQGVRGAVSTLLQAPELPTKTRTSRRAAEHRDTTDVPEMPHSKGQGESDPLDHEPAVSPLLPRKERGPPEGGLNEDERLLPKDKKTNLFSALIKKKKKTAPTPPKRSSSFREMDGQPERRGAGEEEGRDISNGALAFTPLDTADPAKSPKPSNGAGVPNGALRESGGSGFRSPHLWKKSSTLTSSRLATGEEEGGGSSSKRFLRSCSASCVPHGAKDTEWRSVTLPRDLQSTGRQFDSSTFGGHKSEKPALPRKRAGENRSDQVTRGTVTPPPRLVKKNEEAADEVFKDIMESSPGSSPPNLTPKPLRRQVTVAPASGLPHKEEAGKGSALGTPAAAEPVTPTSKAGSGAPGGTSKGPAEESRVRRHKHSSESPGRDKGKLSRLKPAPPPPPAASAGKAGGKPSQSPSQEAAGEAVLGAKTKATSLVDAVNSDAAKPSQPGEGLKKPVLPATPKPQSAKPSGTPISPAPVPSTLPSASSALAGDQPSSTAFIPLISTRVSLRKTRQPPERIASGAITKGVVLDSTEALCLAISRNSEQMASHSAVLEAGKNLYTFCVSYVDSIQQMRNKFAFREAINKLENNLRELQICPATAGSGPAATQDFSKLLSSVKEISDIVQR
Description: (§3) ADP-Glo assay kit was purchased from Promega. Magnesium chloride (MgCl2), bovine serum albumin (BSA), ethylene glycol-bis(β-aminoethyl ether)-N,N,N′,N′-tetraacetic acid (EGTA), tween-20, 1,4-dithiothreitol (DTT) and dimethyl sulfoxide (DMSO) were purchased from Sigma-Aldrich. HEPES buffer was purchased from Gibco. ABL1 kinase and Abltide were purchased from Signalchem.
(§4) c-Abl kinase activity was measured by Promega’s ADP-Glo ® Assay. In this assay, His-tagged recombinant human ABL1 (0.25 ng/µl) is incubated with 5 µL of compounds (0.5% DMSO), 5 µL of Abltide (0.01 µg/µl) and 5 µL of ATP (25 µM) in buffer (50 mM HEPES,7.5; 10 mM MgCl2; 1 mM EGTA; 0.05% BSA; 0.01% Tween-20; 2 mM DTT.). The assay was started by incubating the reaction mixture in a 96-well plate at 30° C. for 30-min. After the incubation, 25 µL ADP-Glo reagent was added and the reaction was incubated at room temperature for 40-min to stop the reaction and degrade residual ATP. The ADP product was then converted to ATP by adding 50 µL per well of detection reagent. Luminescence was detected after 30-min room temperature incubation with the Molecular device I3X plate reader. The IC50 values were calculated from a series of percent inhibition values determined at a range of inhibitor concentration using software routines as implemented in the GraphPad Prism 7 software and Sigma Plot 13.0.

[3] = target: GST-tagged recombinant human RIPK2 (Homo sapiens (Human), UniProt O43353); experiment: RIP2 Kinase Assay (ADP-Glo); type: biochemical; settings: 25 µM ATP, MBP substrate, 30° C. 60 minutes
Chain of GST-tagged recombinant human RIPK2 (O43353 whole entry): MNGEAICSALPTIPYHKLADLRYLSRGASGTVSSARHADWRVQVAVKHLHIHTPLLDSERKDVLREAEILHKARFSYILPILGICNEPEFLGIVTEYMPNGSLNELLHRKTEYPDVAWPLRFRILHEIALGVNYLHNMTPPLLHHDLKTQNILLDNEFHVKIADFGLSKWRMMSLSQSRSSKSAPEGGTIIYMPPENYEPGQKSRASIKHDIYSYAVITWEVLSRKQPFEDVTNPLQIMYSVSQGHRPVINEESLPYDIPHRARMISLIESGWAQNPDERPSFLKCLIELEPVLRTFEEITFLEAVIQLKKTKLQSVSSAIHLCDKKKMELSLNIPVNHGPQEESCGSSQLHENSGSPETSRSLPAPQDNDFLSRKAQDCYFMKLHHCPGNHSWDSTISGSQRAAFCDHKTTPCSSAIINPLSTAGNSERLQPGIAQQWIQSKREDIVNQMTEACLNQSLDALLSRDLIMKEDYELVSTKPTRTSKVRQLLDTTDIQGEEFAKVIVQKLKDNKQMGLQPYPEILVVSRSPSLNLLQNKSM
Description: GST-tagged recombinant human RIPK2(25 ng) is incubated with 5 µL of compounds (0.5% DMSO), 5 µL of MBP (0.5 µg/µl) and 5 µL of ATP (25 µM) in buffer (40 mM Tris, 7.5; 20 mM MgCl2; 0.1 mg/ml BSA; 50 µM DTT). The assay was started by incubating the reaction mixture in a 96-well plate at 30° C. for 60 minutes. After the incubation, 25 µL ADP-Glo reagent was added, and the reaction was incubated at 30° C. for 40 minutes to stop the reaction and degrade residual ATP. The ADP product was then converted to ATP by adding 50 µL per well of detection reagent. Luminescence was detected after 30 minutes room temperature incubation with the Molecular device I3X plate reader. The IC50 values were calculated from a series of percent inhibition values determined at a range of inhibitor concentration using software routines as implemented in the GraphPad Prism 7 software or SigmaPlot 13.0.

LRRK2 (WT) = LRRK2 (WT) (Homo sapiens (Human), UniProt Q5S007); experiment: LRRK2 kinase assay (Adapta); type: biochemical; settings: 70 µM ATP, LRRKtide substrate
Chain of LRRK2 (WT) (Q5S007 whole entry, species assumed): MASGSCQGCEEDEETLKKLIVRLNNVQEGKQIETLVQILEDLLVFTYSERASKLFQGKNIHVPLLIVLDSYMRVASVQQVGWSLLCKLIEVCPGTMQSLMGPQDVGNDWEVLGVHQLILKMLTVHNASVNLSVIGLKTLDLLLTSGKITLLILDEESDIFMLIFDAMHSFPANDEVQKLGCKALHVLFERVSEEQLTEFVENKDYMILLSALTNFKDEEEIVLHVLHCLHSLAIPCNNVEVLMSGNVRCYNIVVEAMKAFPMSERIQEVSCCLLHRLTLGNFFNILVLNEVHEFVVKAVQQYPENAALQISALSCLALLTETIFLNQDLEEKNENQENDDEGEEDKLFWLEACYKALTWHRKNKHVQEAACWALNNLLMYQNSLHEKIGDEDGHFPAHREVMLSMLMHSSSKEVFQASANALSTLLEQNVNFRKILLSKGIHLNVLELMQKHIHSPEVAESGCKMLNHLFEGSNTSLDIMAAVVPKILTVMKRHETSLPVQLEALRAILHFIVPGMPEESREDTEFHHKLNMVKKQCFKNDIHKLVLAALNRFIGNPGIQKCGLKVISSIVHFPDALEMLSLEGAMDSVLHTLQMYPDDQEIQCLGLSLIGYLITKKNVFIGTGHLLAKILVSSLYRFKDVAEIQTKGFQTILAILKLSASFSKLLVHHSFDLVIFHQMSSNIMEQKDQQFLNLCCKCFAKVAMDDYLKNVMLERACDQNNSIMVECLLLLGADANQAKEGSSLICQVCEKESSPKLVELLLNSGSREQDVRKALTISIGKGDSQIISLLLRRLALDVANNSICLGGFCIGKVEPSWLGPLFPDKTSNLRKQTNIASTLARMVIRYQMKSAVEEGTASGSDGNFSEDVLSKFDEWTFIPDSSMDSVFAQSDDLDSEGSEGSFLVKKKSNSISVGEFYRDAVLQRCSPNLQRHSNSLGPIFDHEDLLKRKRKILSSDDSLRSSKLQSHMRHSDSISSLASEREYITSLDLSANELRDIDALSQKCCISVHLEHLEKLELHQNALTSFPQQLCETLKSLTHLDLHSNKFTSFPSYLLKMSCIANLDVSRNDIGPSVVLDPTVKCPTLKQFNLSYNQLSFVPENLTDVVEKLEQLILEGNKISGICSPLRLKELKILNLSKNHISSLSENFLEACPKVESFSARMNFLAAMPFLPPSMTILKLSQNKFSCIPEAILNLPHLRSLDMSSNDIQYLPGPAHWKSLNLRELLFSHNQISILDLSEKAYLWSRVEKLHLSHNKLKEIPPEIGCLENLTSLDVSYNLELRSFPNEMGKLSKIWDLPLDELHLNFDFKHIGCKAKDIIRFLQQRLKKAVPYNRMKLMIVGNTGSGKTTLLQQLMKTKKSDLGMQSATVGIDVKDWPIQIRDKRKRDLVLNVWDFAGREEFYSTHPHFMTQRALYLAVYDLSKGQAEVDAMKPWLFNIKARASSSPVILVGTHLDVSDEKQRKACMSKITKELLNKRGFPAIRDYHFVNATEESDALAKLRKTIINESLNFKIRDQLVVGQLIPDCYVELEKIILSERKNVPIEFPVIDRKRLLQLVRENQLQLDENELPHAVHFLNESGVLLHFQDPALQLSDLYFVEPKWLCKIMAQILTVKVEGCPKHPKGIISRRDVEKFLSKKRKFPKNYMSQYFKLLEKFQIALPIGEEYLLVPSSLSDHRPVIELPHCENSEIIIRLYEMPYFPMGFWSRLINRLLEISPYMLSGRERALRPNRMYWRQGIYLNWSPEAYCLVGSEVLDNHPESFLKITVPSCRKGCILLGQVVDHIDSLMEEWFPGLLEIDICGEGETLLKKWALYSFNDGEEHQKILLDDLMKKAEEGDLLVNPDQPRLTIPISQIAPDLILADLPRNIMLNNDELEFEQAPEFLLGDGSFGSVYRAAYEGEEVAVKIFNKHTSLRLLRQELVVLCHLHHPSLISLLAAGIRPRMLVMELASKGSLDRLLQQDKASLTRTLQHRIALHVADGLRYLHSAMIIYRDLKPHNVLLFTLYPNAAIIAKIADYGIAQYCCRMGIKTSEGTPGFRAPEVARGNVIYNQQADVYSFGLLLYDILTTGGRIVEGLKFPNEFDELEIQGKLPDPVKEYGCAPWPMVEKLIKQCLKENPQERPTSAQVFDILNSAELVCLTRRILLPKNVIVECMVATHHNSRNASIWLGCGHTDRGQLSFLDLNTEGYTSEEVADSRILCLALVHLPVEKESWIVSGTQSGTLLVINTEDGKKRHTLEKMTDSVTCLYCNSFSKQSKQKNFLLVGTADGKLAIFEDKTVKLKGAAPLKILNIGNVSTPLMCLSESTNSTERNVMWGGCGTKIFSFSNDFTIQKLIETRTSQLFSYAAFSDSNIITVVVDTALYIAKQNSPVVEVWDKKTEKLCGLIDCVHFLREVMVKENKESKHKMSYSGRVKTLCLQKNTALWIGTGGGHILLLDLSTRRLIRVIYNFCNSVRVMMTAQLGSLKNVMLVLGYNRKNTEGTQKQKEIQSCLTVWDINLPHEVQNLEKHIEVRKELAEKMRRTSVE
Description: (§1) LRRK2 and LRRK2 G2019S Kinase Assay
(§2) The LRRK2 and LRRK2 G2019S kinase assays were performed using the AdaptaTM technology in ThermoFisher Scientific. This experiment was carried out according to the supplier’s protocol. Briefly, assay conditions were as follows. The mixture of substrate (LRRKtide) and each kinase was prepared in 50 mM Tris pH 8.5, 0.01% BRIJ-35, 10 mM MgCl2, 1 mM EGTA, 0.02% NaN3. Assays were performed in the presence of 70 µM ATP and 100 µM ATP (KmATP) in LRRK2 and LRRK2 G2019S, respectively. The reaction was progressed at room temperature for 1 hour. Upon completion of kinase reaction, 5 µL of Detection Mix was added and after 60 min incubation time, the emission ratio of 665/615 nm was calculated

LRRK2 G2019S = LRRK2 G2019S (Homo sapiens (Human), UniProt Q5S007, G2019S); experiment: LRRK2 G2019S kinase assay (Adapta); type: biochemical; settings: 100 µM ATP, LRRKtide substrate; read-out: LRRK2_G2019S IC50
Chain of LRRK2 G2019S (Q5S007 whole entry G2019S): as the sequence (Q5S007 whole entry, species assumed) above, with G2019S counted along it
Description: as §1, §2

[4] = target: T1, His-tagged recombinant human ABL1; settings: read-out: c-Abl IC50; 25 µM ATP, Abltide substrate, 30° C. 30-min
Description: as §3, §4

| SMILES | IC50 [1] [nM] | IC50 [2] [nM] | IC50 [3] [nM] | IC50 (LRRK2 (WT)) [nM] | IC50 (LRRK2 G2019S) [nM] | IC50 [4] [nM] |
| --- | --- | --- | --- | --- | --- | --- |
| Cc1c(-c2ccn3nc(NC(=O)C4CC4)cc3c2)cnc2[nH]ccc12 [Example 19, N-(5-(4-methyl-1H-pyrrolo[2,3-b]pyridin-5-yl)pyrazolo[1,5-a]pyridin-2-yl)cyclopropanecarboxamide] | 82.9 | 2.4 | 11.4 | – | – | – |
| O=C(Nc1cc2cc(-c3cnc4[nH]ccc4c3Cl)ccn2n1)[C@@H]1C[C@@H]1F [Example 2, (1S,2S)-N-(5-(4-chloro-1 H-pyrrolo[2,3-b]pyridin-5-yl)pyrazolo[1,5-a]pyridin-2-yl)-2-fluorocyclopropane-1-carboxamide] | 68.6 | – | 6.67 | 36.5 | 15 | 7.6 |
| O=C(Nc1cc2cc(-c3cnc4[nH]ccc4c3)ccn2n1)[C@@H]1C[C@@H]1F [Example 1, (1S,2S)-N-(5-(1 H-pyrrolo[2,3-b]pyridin-5-yl)pyrazolo[1,5-a]pyridin-2-yl)-2-fluorocyclopropane-1-carboxamide] | 187 | – | 11 | 55.7 | 28 | 0.71 |
| Nc1c(-c2ccn3nc(NC(=O)[C@@H]4C[C@@H]4F)cc3c2)cnc2[nH]ccc12 [Example 10, (1S,2S)-N-(5-(4-amino-1H-pyrrolo[2,3-b]pyridin-5-yl)pyrazolo[1,5-a]pyridin-2-yl)-2-fluorocyclopropane-1-carboxamide] | 3940 | – | 91.5 | – | – | 54.2 |
